The values below come from ChEMBL document CHEMBL5726706, “C-linked heterocycloaklyl substituted pyrimidines and their uses” (2018).

Structures are written as SMILES. pKi: −log10 of the molar value.

The target in this assay is T1, Mitogen-activated protein kinase kinase kinase 12 (Homo sapiens, UniProt Q12852).
T1 sequence (Q12852 whole entry): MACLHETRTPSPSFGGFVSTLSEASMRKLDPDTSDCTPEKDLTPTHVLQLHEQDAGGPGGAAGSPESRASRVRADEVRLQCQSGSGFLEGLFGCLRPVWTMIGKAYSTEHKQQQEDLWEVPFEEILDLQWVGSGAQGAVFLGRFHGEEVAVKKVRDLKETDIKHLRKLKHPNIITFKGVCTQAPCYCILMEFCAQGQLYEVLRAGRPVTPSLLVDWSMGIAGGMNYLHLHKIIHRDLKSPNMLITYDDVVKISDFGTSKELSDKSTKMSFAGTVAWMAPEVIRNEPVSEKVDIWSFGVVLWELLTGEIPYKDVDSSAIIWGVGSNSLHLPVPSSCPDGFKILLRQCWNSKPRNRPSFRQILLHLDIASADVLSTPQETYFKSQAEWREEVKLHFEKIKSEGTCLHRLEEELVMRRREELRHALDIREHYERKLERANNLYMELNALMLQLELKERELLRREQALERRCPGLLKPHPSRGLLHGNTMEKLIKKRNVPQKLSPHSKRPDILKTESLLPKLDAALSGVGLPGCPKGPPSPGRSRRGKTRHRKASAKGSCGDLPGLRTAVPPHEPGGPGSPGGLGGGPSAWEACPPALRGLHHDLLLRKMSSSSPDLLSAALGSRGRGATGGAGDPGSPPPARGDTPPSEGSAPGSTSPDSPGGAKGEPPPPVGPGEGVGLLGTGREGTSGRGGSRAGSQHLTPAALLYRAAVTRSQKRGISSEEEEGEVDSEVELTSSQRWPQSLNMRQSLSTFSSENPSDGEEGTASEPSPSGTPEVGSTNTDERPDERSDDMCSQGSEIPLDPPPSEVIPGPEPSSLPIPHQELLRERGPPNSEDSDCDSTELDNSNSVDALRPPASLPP
Briefly: TR-FRET assay: DLK kinase reactions (20 μL) containing 5 nM N-terminally GST-tagged DLK (catalytic domain amino acid 1-520) (Carna Bioscience), 40 nM N-terminally HIS-tagged MKK4 K131M substrate, and 30 μM ATP in kinase reaction buffer (50 mM HEPES, pH 7.5, 0.01% Triton X-100, 0.01% Bovine γ-Globulins, 2 mM DTT, 10 mM MgCl2 and 1 mM EGTA), and testing compound 1:3 serial diluted starting at 20 uM were incubated at ambient temperature for 60 minutes in 384 well OptiPlate (Perkin Elmer). To quench kinase reactions and detect phosphorylated MKK4, 15 μL of TR-FRET antibody mixture containing 2 nM anti-phosphorylated MKK4 labeled with Europium cryptate (Cisbio) and 23 nM anti-HIS labeled with D2 (Cisbio) in detection buffer (25 mM Tris pH 7.5, 100 mM NaCl, 100 mM EDTA, 0.01% Tween-20, and 200 mM KF) was added to the reaction mixture. The detection mixture was incubated for 3 hours at ambient temperature and the TR-FRET was detected with an EnVision multilabel plate reader (Perkin-Elmer) using the LANCE/DELFIA Dual Enh label from Perkin-Elmer (excitation filter: UV2 (TRF) 320 and emission filters: APC 665 and Europium 615). For orientation: Time-resolved FRET reads energy transfer from a long-lived donor to a nearby acceptor.

In general, pKi refers to the negative decadic logarithm of the Ki, by convention in mol/L. As to `Cc1ccnc(Nc2cc(C3CCCN(C(=O)Cc4ccccc4)C3)nc(C)n2)c1` (configuration not stated), the negative logarithm of the Ki (pKi) is 6.19. On to `COC[C@H]1CCCN1c1nc(Nc2cc(C(F)(F)F)ccn2)cc(C2CCN(C(C)=O)CC2)n1`, for which the pKi was 7.26.
